Measured values taken from the CheMixHub drug solubility set.

Assay: xn = mol fraction of the nth substance listed, in the solute-free solvent

**Q.** What does the source list for `O=C1CCC(C(=O)N2CSCC2C(=O)O)N1` (centres undefined) + CO + CC(C)=O?
**A.** solubility (g/100 g solution) (278.15 K, x2 = 0.1676): 0.03; solubility (g/100 g solution) (278.15 K, x2 = 0.3118): 0.045; solubility (g/100 g solution) (278.15 K, x2 = 0.4372): 0.0669; solubility (g/100 g solution) (278.15 K, x2 = 0.5471): 0.74; solubility (g/100 g solution) (278.15 K, x2 = 0.6444): 0.813; solubility (g/100 g solution) (278.15 K, x2 = 0.7311): 0.964; solubility (g/100 g solution) (278.15 K, x2 = 0.8087): 1.07; solubility (g/100 g solution) (278.15 K, x2 = 0.8788): 1.02; solubility (g/100 g solution) (278.15 K, x2 = 0.9422): 0.998; solubility (g/100 g solution) (283.15 K, x2 = 0.1676): 0.0418; solubility (g/100 g solution) (283.15 K, x2 = 0.3118): 0.0699; solubility (g/100 g solution) (283.15 K, x2 = 0.4372): 0.0956; solubility (g/100 g solution) (283.15 K, x2 = 0.5471): 0.834; solubility (g/100 g solution) (283.15 K, x2 = 0.6444): 0.929; solubility (g/100 g solution) (283.15 K, x2 = 0.7311): 1.09; solubility (g/100 g solution) (283.15 K, x2 = 0.8087): 1.14; solubility (g/100 g solution) (283.15 K, x2 = 0.8788): 1.15; solubility (g/100 g solution) (283.15 K, x2 = 0.9422): 1.13; solubility (g/100 g solution) (288.15 K, x2 = 0.1676): 0.06; solubility (g/100 g solution) (288.15 K, x2 = 0.3118): 0.101; solubility (g/100 g solution) (288.15 K, x2 = 0.4372): 0.145; solubility (g/100 g solution) (288.15 K, x2 = 0.5471): 0.94; solubility (g/100 g solution) (288.15 K, x2 = 0.6444): 1.04; solubility (g/100 g solution) (288.15 K, x2 = 0.7311): 1.21; solubility (g/100 g solution) (288.15 K, x2 = 0.8087): 1.29; solubility (g/100 g solution) (288.15 K, x2 = 0.8788): 1.28; solubility (g/100 g solution) (288.15 K, x2 = 0.9422): 1.25; solubility (g/100 g solution) (293.15 K, x2 = 0.1676): 0.08; solubility (g/100 g solution) (293.15 K, x2 = 0.3118): 0.147; solubility (g/100 g solution) (293.15 K, x2 = 0.4372): 0.224; solubility (g/100 g solution) (293.15 K, x2 = 0.5471): 1.08; solubility (g/100 g solution) (293.15 K, x2 = 0.6444): 1.2; solubility (g/100 g solution) (293.15 K, x2 = 0.7311): 1.38; solubility (g/100 g solution) (293.15 K, x2 = 0.8087): 1.48; solubility (g/100 g solution) (293.15 K, x2 = 0.8788): 1.48; solubility (g/100 g solution) (293.15 K, x2 = 0.9422): 1.42; solubility (g/100 g solution) (298.15 K, x2 = 0.1676): 0.115; solubility (g/100 g solution) (298.15 K, x2 = 0.3118): 0.241; solubility (g/100 g solution) (298.15 K, x2 = 0.4372): 0.317; solubility (g/100 g solution) (298.15 K, x2 = 0.5471): 1.19; solubility (g/100 g solution) (298.15 K, x2 = 0.6444): 1.37; solubility (g/100 g solution) (298.15 K, x2 = 0.7311): 1.56; solubility (g/100 g solution) (298.15 K, x2 = 0.8087): 1.69; solubility (g/100 g solution) (298.15 K, x2 = 0.8788): 1.69; solubility (g/100 g solution) (298.15 K, x2 = 0.9422): 1.64; solubility (g/100 g solution) (303.15 K, x2 = 0.1676): 0.159; solubility (g/100 g solution) (303.15 K, x2 = 0.3118): 0.346; solubility (g/100 g solution) (303.15 K, x2 = 0.4372): 0.432; solubility (g/100 g solution) (303.15 K, x2 = 0.5471): 1.33; solubility (g/100 g solution) (303.15 K, x2 = 0.6444): 1.58; solubility (g/100 g solution) (303.15 K, x2 = 0.7311): 1.76; solubility (g/100 g solution) (303.15 K, x2 = 0.8087): 1.92; solubility (g/100 g solution) (303.15 K, x2 = 0.8788): 1.92; solubility (g/100 g solution) (303.15 K, x2 = 0.9422): 1.87; solubility (g/100 g solution) (308.15 K, x2 = 0.1676): 0.227; solubility (g/100 g solution) (308.15 K, x2 = 0.3118): 0.532; solubility (g/100 g solution) (308.15 K, x2 = 0.4372): 0.62; solubility (g/100 g solution) (308.15 K, x2 = 0.5471): 1.48; solubility (g/100 g solution) (308.15 K, x2 = 0.6444): 1.81; solubility (g/100 g solution) (308.15 K, x2 = 0.7311): 1.99; solubility (g/100 g solution) (308.15 K, x2 = 0.8087): 2.19; solubility (g/100 g solution) (308.15 K, x2 = 0.8788): 2.18; solubility (g/100 g solution) (308.15 K, x2 = 0.9422): 2.14; solubility (g/100 g solution) (313.15 K, x2 = 0.1676): 0.34; solubility (g/100 g solution) (313.15 K, x2 = 0.3118): 0.773; solubility (g/100 g solution) (313.15 K, x2 = 0.5471): 1.67; solubility (g/100 g solution) (313.15 K, x2 = 0.6444): 2.07; solubility (g/100 g solution) (313.15 K, x2 = 0.7311): 2.24; solubility (g/100 g solution) (313.15 K, x2 = 0.8087): 2.49; solubility (g/100 g solution) (313.15 K, x2 = 0.8788): 2.49; solubility (g/100 g solution) (313.15 K, x2 = 0.9422): 2.43; solubility (g/100 g solution) (318.15 K, x2 = 0.1676): 0.497; solubility (g/100 g solution) (318.15 K, x2 = 0.3118): 1.12; solubility (g/100 g solution) (318.15 K, x2 = 0.4372): 1.24; solubility (g/100 g solution) (318.15 K, x2 = 0.5471): 1.88; solubility (g/100 g solution) (318.15 K, x2 = 0.6444): 2.37; solubility (g/100 g solution) (318.15 K, x2 = 0.7311): 2.54; solubility (g/100 g solution) (318.15 K, x2 = 0.8087): 2.82; solubility (g/100 g solution) (318.15 K, x2 = 0.8788): 2.81; solubility (g/100 g solution) (318.15 K, x2 = 0.9422): 2.77; solubility (g/100 g solution) (323.15 K, x2 = 0.1676): 0.708; solubility (g/100 g solution) (323.15 K, x2 = 0.3118): 1.54; solubility (g/100 g solution) (323.15 K, x2 = 0.4372): 1.72; solubility (g/100 g solution) (323.15 K, x2 = 0.5471): 2.12; solubility (g/100 g solution) (323.15 K, x2 = 0.6444): 2.73; solubility (g/100 g solution) (323.15 K, x2 = 0.7311): 2.94; solubility (g/100 g solution) (323.15 K, x2 = 0.8087): 3.21; solubility (g/100 g solution) (323.15 K, x2 = 0.8788): 3.18; solubility (g/100 g solution) (323.15 K, x2 = 0.9422): 3.13

**Q.** Which “solubility (g/100 g solution)” value (298.15 K, x2 = 0.8085) does the source give for `NCCS(=O)(=O)O` + O + CC(O)CO here?
**A.** Its value is 0.283.

**Q.** What about the “solubility (g/100 g solution)” value (298.15 K, x2 = 0.8636) of the same molecule?
**A.** Its value is 0.605.

**Q.** What about the “solubility (g/100 g solution)” value (298.15 K, x2 = 0.9079) of the same molecule?
**A.** The value was 0.929.

**Q.** What about the “solubility (g/100 g solution)” value (298.15 K, x2 = 0.9441) of the same molecule?
**A.** The value was 1.72.

**Q.** And the “solubility (g/100 g solution)” value (298.15 K, x2 = 0.9744)?
**A.** Its value is 3.42.

**Q.** And the “solubility (g/100 g solution)” value (303.15 K, x2 = 0.8085)?
**A.** Its value is 0.373.

**Q.** What about the “solubility (g/100 g solution)” value (303.15 K, x2 = 0.8636) of the same molecule?
**A.** Its value is 0.646.

**Q.** And the “solubility (g/100 g solution)” value (303.15 K, x2 = 0.9079)?
**A.** Its value is 1.

**Q.** And the “solubility (g/100 g solution)” value (303.15 K, x2 = 0.9441)?
**A.** The value was 2.03.

**Q.** What about the “solubility (g/100 g solution)” value (303.15 K, x2 = 0.9744) of the same molecule?
**A.** The value was 4.2.

**Q.** And the “solubility (g/100 g solution)” value (308.15 K, x2 = 0.8085)?
**A.** The value was 0.413.

**Q.** And the “solubility (g/100 g solution)” value (308.15 K, x2 = 0.8636)?
**A.** The value was 0.75.

**Q.** What about the “solubility (g/100 g solution)” value (308.15 K, x2 = 0.9079) of the same molecule?
**A.** The value was 1.36.

**Q.** And the “solubility (g/100 g solution)” value (308.15 K, x2 = 0.9441)?
**A.** The value was 2.51.

**Q.** And the “solubility (g/100 g solution)” value (308.15 K, x2 = 0.9744)?
**A.** Its value is 5.01.

**Q.** And the “solubility (g/100 g solution)” value (313.15 K, x2 = 0.8085)?
**A.** The value was 0.484.

**Q.** What about the “solubility (g/100 g solution)” value (313.15 K, x2 = 0.8636) of the same molecule?
**A.** Its value is 0.914.

**Q.** What about the “solubility (g/100 g solution)” value (313.15 K, x2 = 0.9079) of the same molecule?
**A.** The value was 1.64.

**Q.** What about the “solubility (g/100 g solution)” value (313.15 K, x2 = 0.9441) of the same molecule?
**A.** The value was 3.03.

**Q.** What about the “solubility (g/100 g solution)” value (313.15 K, x2 = 0.9744) of the same molecule?
**A.** Its value is 5.6.

**Q.** And the “solubility (g/100 g solution)” value (318.15 K, x2 = 0.8085)?
**A.** Its value is 0.694.

**Q.** What about the “solubility (g/100 g solution)” value (318.15 K, x2 = 0.8636) of the same molecule?
**A.** Its value is 1.26.

**Q.** And the “solubility (g/100 g solution)” value (318.15 K, x2 = 0.9079)?
**A.** Its value is 2.12.

**Q.** What about the “solubility (g/100 g solution)” value (318.15 K, x2 = 0.9441) of the same molecule?
**A.** Its value is 3.67.

**Q.** What about the “solubility (g/100 g solution)” value (318.15 K, x2 = 0.9744) of the same molecule?
**A.** Its value is 6.88.
